From patent publication US20150283110A1, “COMPOSITION FOR PREVENTING OR TREATING HEART DISEASE” (AMOREPACIFIC CORPORATION, priority 2012, published 2015)

What was measured:
SIRT1 gene [1] = experiment: SIRT1 gene expression promoting effect in cardiomyocytes (RT-PCR); assay type: cell-based; set-up: change of the expression of the SIRT1 gene: dose or concentration left out as unconfirmed; details: rat cardiomyocytes, FIG. 1; for change of the expression of the SIRT1 gene: serum-free, 24 hours, DMSO control
Method: The SIRT1 gene expression promoting effect of the two optical isomers of syringaresinol in rat cardiomyocytes was evaluated as follows.
The heart of a 1-2 day old Sprague-Dawley rat was excised, immersed in an HBSS solution, cut into pieces with scissors and kept overnight in a trypsin/EDTA solution inside a shaker at 4° C. The next day, the trypsin solution was discarded and a 10% FCS/DMEM solution was added to inhibit trypsin activity. After discarding the FCS/DMEM, adding a collagenase solution and keeping in a shaking bath at 37° C. for about 3 minutes, only the supernatant was collected in a conical tube. This procedure was repeated three times. After centrifuging the collected solution at 750 rpm for 5 minutes, the resulting pellets were resuspended in a 10% FCS/DMEM solution, transferred to a culture flask and then incubated at 37° C. for 75 minutes. The suspension was transferred to a fresh culture flask, incubated again for 75 minutes, transferred to a conical tube and then plated after cell counting. The plated cells were cultured in a 10% FCS/DMEM medium for 3-4 days until confluence and the medium was treated respectively with the (+)-syringaresinol (50 mM) obtained in Example and with the (−)-syringaresinol (50 mM) obtained in Comparative Example for 24 hours after removing the serum. The control group was treated with DMSO. The treated cells were washed 2 times with cold PBS and RNA was extracted therefrom using the TRIzol reagent (Invitrogen). cDNA was synthesized from the extracted and quantitated 1 μg/μL RNA using a reverse transcription system (Promega). The expression profile of the SIRT1 and GAPDH genes was measured using the synthesized cDNA and primers and probes predesigned for the genes (Applied Biosystems; SIRT1, Hs01009006_m1; GAPDH, Hs99999905_m1). PCR reaction and analysis were conducted using the Rotor-Gene 3000 system (Corbett Research, Sydney, Australia).

cardiomyocytes = experiment: Cardiomyocyte protection from cell death induced by reactive oxygen species (H2O2, MTT); assay type: cell-based, rat; details: 250 mM H2O2 2 hours, then 5, 20 or 50 mM for 24 hours; MTT OD 540 nm; FIGS. 2 and 3
Method: Cardiomyocytes isolated and cultured according to the substantially same method as described in Test Example 1 were treated with 250 mM hydrogen peroxide (H2O2) for 2 hours in a serum-free medium to induce cell death by reactive oxygen species. 2 hours later, after removing the medium and washing with PBS, the cells were treated with 5, 20 or 50 mM (+)-syringaresinol and (−)-syringaresinol for 24 hours. After adding a 3-[4,5-dimethylthiazolyl]-2,5-diphenyltetrazolium bromide (MTT, Sigma) solution to the cells and incubating at 37° C. for 4 hours, dimethyl sulfoxide was added and the optical density (OD) of the formed formazan dye was measured at a wavelength of 540 nm using an ELISA reader (Thermo Max, Molecular Devices Co.).

SIRT1 gene [2] = experiment: SIRT1 expression in vascular endothelial cells during induced aging (RT-PCR); assay type: cell-based; details: human vascular endothelial cells, 50 mM every other day, FIG. 8
Method: Human vascular endothelial cells purchased from Lonza (Walkersville, Md., USA) were cultured using the endothelial cell growth medium EGM-2 SingleQuots (Lonza) in a 5% CO2 incubator until 70% confluence. […] The population doubling level (PDL) was calculated according to the following equation for each generation until the cell growth was stopped. The PDL value is higher in aged cells.
14 PDL cells were treated with syringaresinol obtained from ginseng berry [syn(GB)], synthesized (+)-syringaresinol [syn(+)], 1:1 [syn(+/−1:1)], 2:1 [syn(+/−2:1)], 5:1 [syn(syn(+/−5:1))] or 10:1 [syn(syn(+/−10:1))] mixture of synthesized (+)-syringaresinol and synthesized (−)-syringaresinol or syringaresinol obtained from eleuthero [syn(eleuthero)] at a concentration of 50 mM every other day while inducing aging to 40 PDL cells. The cells of a negative control group were treated with DMSO of 1/1000 of the volume of the medium. The cells treated with each sample were washed 2 times with cold PBS and RNA was extracted using the TRIzol reagent (Invitrogen). cDNA was synthesized from the extracted RNA (1 μg/μL) using a reverse transcription system (Promega). Subsequently, the expression profile of the SIRT1 and GAPDH genes was measured using the synthesized cDNA and primers and probes predesigned for the genes (Applied Biosystems; SIRT1, Hs01009006_m1; GAPDH, Hs99999905_m1). […]

SMILES	change of the expression of the SIRT1 gene (SIRT1 gene [1])	death of cardiomyocytes induced by reactive oxygen species (cardiomyocytes)	effect of increasing the SIRT1 expression compared with syringaresinol obtained from ginseng berry (SIRT1 gene [1])	SIRT1 expression compared with cells treated with syringaresinol obtained from ginseng berry (SIRT1 gene [2])	SIRT1 expression as compared to the cells treated only with DMSO (SIRT1 gene [2]; 14 PDL to 40 PDL) [times]
COc1cc(C2OCC3C(c4cc(OC)c(O)c(OC)c4)OCC23)cc(OC)c1O (single isomer, unassigned; (-)) [(−)-syringaresinol, reference compound]	cannot increase the expression of the SIRT1 gene	promoted cell death			
COc1cc(C2OCC3C(c4cc(OC)c(O)c(OC)c4)OCC23)cc(OC)c1O (centres unmarked) [syringaresinol obtained from ginseng berry]	increase the SIRT1 expression in cardiomyocyte in concentration-dependent manners				
COc1cc([C@H]2OC[C@H]3[C@@H]2CO[C@@H]3c2cc(OC)c(O)c(OC)c2)cc(OC)c1O [(+)-syringaresinol, (8R,8′R)-(+)-syringaresinol]	increase the SIRT1 expression in cardiomyocyte in concentration-dependent manners	suppressed the death of the cardiomyocytes induced by the reactive oxygen species in a concentration-dependent manner	better effect of increasing the SIRT1 expression than the syringaresinol obtained from ginseng berry	higher SIRT1 expression than the cells treated with the syringaresinol obtained from ginseng berry	≥ 4
